Where a name gives a salt, the structure may show the parent alone.
Target: T1, human AspH (His6-AspH315–758) (Homo sapiens, UniProt Q12797)
T1 construct: N-Terminally His6-tagged human AspH315–758 (His6-AspH315–758) was produced in Escherichia coli BL21 (DE3) cells; made in house; host or cells: Escherichia coli BL21 (DE3), pET-28a(+) vector
T1 sequence (Q12797 315-758): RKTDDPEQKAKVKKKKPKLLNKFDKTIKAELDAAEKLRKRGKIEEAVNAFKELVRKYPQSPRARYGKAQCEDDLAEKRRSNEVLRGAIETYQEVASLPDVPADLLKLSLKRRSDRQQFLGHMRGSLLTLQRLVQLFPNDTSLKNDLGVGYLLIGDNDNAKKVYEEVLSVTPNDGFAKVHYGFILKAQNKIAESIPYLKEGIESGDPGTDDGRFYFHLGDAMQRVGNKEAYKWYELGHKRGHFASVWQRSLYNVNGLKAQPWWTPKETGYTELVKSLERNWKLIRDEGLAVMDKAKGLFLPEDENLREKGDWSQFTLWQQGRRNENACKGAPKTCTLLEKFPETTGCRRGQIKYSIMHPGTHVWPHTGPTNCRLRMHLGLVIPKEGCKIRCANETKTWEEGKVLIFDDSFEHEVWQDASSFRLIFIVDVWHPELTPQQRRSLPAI
Assay: SPE-MS AspH inhibition assay (hFX-CP101-119 substrate hydroxylation)
Type: biochemical
Conditions: AspH-inhibitor screening; for Plate 1 (% inhibition): 384-well Plate 1; for Plate 1 (% conversion): 384-well Plate 1, substrate conversion; for Plate 1-duplicate (% conversion): substrate conversion

Row | Compound | Plate 1 (% inhibition) [%] | Plate 1 (% conversion) [%] | Plate 1-duplicate (% inhibition) [%] | Plate 1-duplicate (% conversion) [%]
1 | CC[C@H](Nc1ncnc2[nH]cnc12)c1nc2cccc(F)c2c(=O)n1-c1ccccc1 [Idelalisib] | 9.55 | 45.34 | 7.71 | 48.22
2 | O=P1(NCCCl)OCCCN1CCCl (stereo not drawn) [Ifosfamide] | 7.87 | 46.12 | 4.50 | 49.81
3 | O=C(Nc1ccncc1)C(=O)c1cn(Cc2ccc(Cl)cc2)c2ccccc12 [Indibulin] | 45.36 | 28.80 | 2.65 | 50.73
4 | C/C(=C\c1csc(C)n1)[C@@H]1C[C@@H]2O[C@]2(C)CCC[C@H](C)[C@H](O)[C@@H](C)C(=O)C(C)(C)[C@@H](O)CC(=O)N1 [Ixabepilone] | -1.86 | 50.61 | -1.35 | 52.71
5 | c1ccc2c(CCNc3ccc(Nc4ccncc4)cc3)c[nH]c2c1 [JNJ 26854165 (Serdemetan)] | 32.19 | 34.89 | 30.40 | 36.96
6 | CC(C)(C)Cn1c(N)nc2ccc(-c3[nH]c(C(C)(C)C)nc3-c3ccc(F)cc3)nc21 [LY2228820 (CP868569)] | -13.39 | 55.93 | -13.16 | 58.57

Further lines, results first:

Row | Plate 1 (% inhibition) [%] | Plate 1 (% conversion) [%] | Plate 1-duplicate (% inhibition) [%] | Plate 1-duplicate (% conversion) [%] | Compound
7 | 6.62 | 46.69 | 5.28 | 49.42 | CC(=O)[C@]1(O)Cc2c(O)c3c(c(O)c2[C@@H](O[C@H]2C[C@H](N)[C@H](O)[C@H](C)O2)C1)C(=O)c1ccccc1C3=O [Idarubicin HCl]
8 | 3.84 | 47.98 | 5.27 | 49.43 | CC(C)Cn1cnc2c(N)nc3ccccc3c21 [Imiquimod]
9 | 6.32 | 46.83 | 5.00 | 49.56 | NC(=O)c1ccc(I)c([N+](=O)[O-])c1 [Iniparib (BSI-201, IND-71677)]
10 | -1.48 | 50.43 | 0.58 | 51.76 | CCc1c2c(nc3ccc(OC(=O)N4CCC(N5CCCCC5)CC4)cc13)-c1cc3c(c(=O)n1C2)COC(=O)[C@]3(O)CC.Cl [Irinotecan hydrochloride]
11 | 1.66 | 48.98 | -3.53 | 53.79 | CCc1c2c(nc3ccc(OC(=O)N4CCC(N5CCCCC5)CC4)cc13)-c1cc3c(c(=O)n1C2)COC(=O)[C@]3(O)CC [Irinotecan]
12 | 72.42 | 16.31 | 72.94 | 15.87 | CC(C)C[C@H](NC(=O)CNC(=O)c1cc(Cl)ccc1Cl)B1OC(=O)C(CC(=O)O)(CC(=O)O)O1 [Ixazomib citrate]
13 | -7.35 | 53.15 | -6.18 | 55.11 | Cn1cc(CNCC2CCN(c3ncc(C(=O)NO)cn3)CC2)c2ccccc21 [JNJ-26481585_Quisinostat]
14 | 5.18 | 47.36 | 4.86 | 49.63 | Cc1cccc(-c2nn3c(c2-c2ccnc4ccc(C(N)=O)cc24)CCC3)n1 [LY2157299]
15 | -51.46 | 73.51 | -47.27 | 75.48 | Cc1cnc(NC(=O)Nc2cc(Br)c(C)cc2OC[C@@H]2CNCCO2)cn1 [LY2603618_Rabusertib]
